Laboratory results: patent US11919869B2, “CD73 compounds” (Gilead Sciences, Inc., priority 2021, dated 2024)
Like-named read-outs stand apart in the source and are kept apart here.

Assays:
[1] = Kinetic solubility at pH 1 and 7; assay type: physicochemical; details: 23 °C, kinetic from dmso stock, 1.0% DMSO
Method: Kinetic Solubility at pH 1 and 7
100-fold dilutions of each compound as DMSO stock solution were prepared by combining 3 μL of DMSO stock with 297 μL of the appropriate media in a Millipore solubility filter plate with 0.45 μM polycarbonate filter membrane using Hamilton Starlet liquid handling. The final DMSO Concentration is 1.0% and maximum theoretical compound concentration is […] (assuming stock concentration of 10 mM). The filter plate was sealed. Following 24-hour incubation at ambient temperature (22.2-23.6° C.), the samples were vacuum filtered, and the filtrates were collected in a 96 well polypropylene plate for analysis. The collection plate was sealed for analysis. Filtrates were injected into the nitrogen detector for quantification. The equimolar nitrogen response of the detector is calibrated using standards which span the dynamic range of the instrument from 0.08 to 4500 μg/ml nitrogen. The filtrates were quantified with respect to this calibration curve. The calculated solubility values are corrected for background nitrogen present in the DMSO, and the media used to prepare the samples

[2] = Thermodynamic solubility in FaSSIF and FeSSIF; assay type: physicochemical; details: 20 hours, ambient temperature
Method: Thermodynamic Solubility in FASSIF and FESSIF.
The aqueous solubility of compounds over a time of 20 hours was assessed. Solubility was determined at ambient temperature in buffered fasted-state simulated intestinal fluid (FaSSIF, pH 6.5) and buffered fed-state simulated intestinal fluid (FeSSIF, pH 5.0) prepared in-house using BioRelevant Simulated Intestinal Fluid (SIF) powder. Solids were added to FaSSIF or FeSSIF in 1.5-mL Eppendorf tubes, vortexed for 1 minute, then agitated for 20 hours in an Eppendorf ThermoMixer C. To determine concentration in solution, the suspensions were centrifuged for 10 min at 14,800 rpm and supernatants were diluted to a volume of 1 mL with 1:1 v/v acetonitrile:water. All diluted supernatants were analyzed by UPLC using a Waters Acquity UPLC with a PDA UV detector.

[3] = target: T1, alkaline phosphatase (intestinal) (Bos taurus, UniProt P19111); experiment: Alkaline phosphatase stability assay; assay type: in vitro ADME; details: 2 μM substrate, 100 ng/mL purified Bovine intestinal alkaline phosphatase, Tris buffer pH 7.8; read-out: ALP half life
T1 construct: purchased MilliPore Sigma
Method: Alkaline Phosphatase Stability Assay
(§1) Alkaline phosphatase stability assays were carried out using purified Bovine intestinal alkaline phosphatase. Duplicate sets were performed with a TECAN liquid handler. Assay substrate concentrations were 2 μM. Purified Bovine intestinal alkaline phosphatase was acquired through MilliPore Sigma as a lyophilized powder. Reaction mixtures were prepared by the addition of 2 μL compound (400 μM stock solution in DMSO) into wells of a 96-well plate containing […] Tris buffer (100 mM, pH 7.8, 1 mM MgCl2 and 1 mM ZnCl2) with and without 100 ng/mL purified Bovine intestinal alkaline phosphatase. Samples were assessed at time points of 3, 30, 60, 120, 180 and 240 minutes. At each time point, 25 μL of the reaction mixtures were added into a 96-well plate containing 225 μL of quench solution (99% Acetonitrile with 1% Formic Acid and 100 nM Labetalol as internal standard). The plates containing the quench samples were then vortexed at 1100 RPM for 10 minutes and centrifuged at 4500 RPM for 20 minutes. 150 μL of the resulting supernatant was transferred into a 96-well plate containing 150 μL of water and vortexed at 1100 RPM for 3 minutes to mix.
(§2) Samples were analyzed with a Leap HTC Autosampler and a Dionex UltiMate 3000 HPLC system interfaced to a Thermo Q-Exactive mass spectrometer operating in positive ion electrospray mode. A Thermo Scientific Hypersil GOLD (1.9 μM particle size, 50×2.1 mm) HPLC column was used and mobile phase was pumped at 0.5 mL/min. Elution of analytes was achieved by a series of linear gradients of acetonitrile in water containing 0.1% (v/v) formic acid. Quantification was by analyte/internal standard peak area ratio (PAR).

[4] = Assay buffer stability (Tris buffer without alkaline phosphatase); assay type: physicochemical; details: 2 μM substrate, Tris buffer pH 7.8 without alkaline phosphatase
Method: as §1, §2

[5] = In vivo rat pharmacokinetics; details: Wister Han rats, 100 mg-eq/kg
Method: In Vivo Rat Pharmacokinetics Experiments
In vivo Wister Han rat pharmacokinetic experiments of compound Comparator C and Example 4 were assessed as follows.
Compound Comparator C was dosed as a 100 mg/kg suspension to Wister Han rats (N=3) using the following formulation:30% captisol, 5% soluplus, 65% pH 2 water. Compound 1170997 was dosed separately as a 100 mg-eq/kg (123 mg/kg) solution to Wister Han rats (N=3) using the following formulation: 0.5% Methocel E4M Premium, 0.1% Tween-80, 99.4% Water. Samples were assessed for the presence of Comparator C.
Comparator C and Example 4. […] As is shown in Table 4, the AUC 0-24 h measured for Comparator C in plasma was higher after dosing with Example 4 than the value measured after dosing with an equivalent dose of Comparator C.

T1 sequence (P19111 20-506 limits assumed): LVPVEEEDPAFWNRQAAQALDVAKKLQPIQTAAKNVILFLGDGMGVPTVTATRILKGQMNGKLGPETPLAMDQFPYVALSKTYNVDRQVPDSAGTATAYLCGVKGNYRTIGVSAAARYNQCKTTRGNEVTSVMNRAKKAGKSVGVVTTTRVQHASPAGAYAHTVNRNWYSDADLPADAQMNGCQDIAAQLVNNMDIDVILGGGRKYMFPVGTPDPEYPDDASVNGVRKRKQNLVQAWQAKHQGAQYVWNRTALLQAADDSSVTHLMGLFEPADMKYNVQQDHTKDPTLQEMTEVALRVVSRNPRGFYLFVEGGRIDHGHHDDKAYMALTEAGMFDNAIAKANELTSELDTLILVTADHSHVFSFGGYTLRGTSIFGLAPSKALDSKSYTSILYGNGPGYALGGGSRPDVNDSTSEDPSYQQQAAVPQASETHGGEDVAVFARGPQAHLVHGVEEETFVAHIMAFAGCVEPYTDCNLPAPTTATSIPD

solubility kinetic at 24 h ([1]; aqueous buffer, pH 7, 24-hour incubation at ambient temperature, read-out: Kinetic Solubility pH 7): > 100 µM
solubility kinetic at 24 h ([1]; simulated gastric fluid, pH 1, 24-hour incubation at ambient temperature, read-out: Kinetic Solubility pH 1): 96 µM
FaSSIF (pH 6.5) ([2]; fasted-state simulated intestinal fluid pH 6.5): 1100 ug/mL
FeSSIF (pH 5.0) ([2]; fed-state simulated intestinal fluid pH 5.0): >5400 ug/mL
half-life at 2 µM [3]: 4 min
half-life at 2 µM [4]: > 1580 min
AUC 0-24 h measured for Comparator C in plasma, compared with dosing an equivalent dose of Comparator C [5]: higher
Compound: O=c1[nH]c(=O)n(COP(=O)(O)O)cc1-c1cc([C@H]2C[C@@H]2c2ccc3cnn(CC(F)(F)F)c3c2)c2ncc(F)n2n1 [Example 4, (5-(3-fluoro-8-((1S,2S)-2-(1-(2,2,2-trifluoroethyl)-1H-indazol-6-yl)cyclopropyl)imidazo[1,2-b]pyridazin-6-yl)-2,4-dioxo-3,4-dihydropyrimidin-1(2H)-yl)methyl dihydrogen phosphate]
